Where a name gives a salt, the structure may show the parent alone. Read-outs that look alike come from different tables or passages of the source.

What all share (format): biochemical
One assay deals with T1, recombinant PRL-1 (Homo sapiens, UniProt Q93096).
T1 construct: 6xHis (N, cleaved yes); made in house; host or cells: E. coli One Shot BL21 Star
T1 sequence (Q93096 1-173): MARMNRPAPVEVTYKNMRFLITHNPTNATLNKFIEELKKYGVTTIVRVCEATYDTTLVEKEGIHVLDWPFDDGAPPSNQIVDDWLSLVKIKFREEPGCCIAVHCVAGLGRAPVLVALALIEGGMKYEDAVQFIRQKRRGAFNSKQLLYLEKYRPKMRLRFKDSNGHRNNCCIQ
The experiment in a line: In vitro phosphatase assay (DiFMUP hydrolysis), PRL-1. Also: test concentration or dose not given here.

The target in the next assay is T2, recombinant PRL-3 (Homo sapiens, UniProt O75365).
T2 construct: 6xHis (N, cleaved yes); made in house; host or cells: E. coli One Shot BL21 Star
T2 sequence (O75365 whole entry): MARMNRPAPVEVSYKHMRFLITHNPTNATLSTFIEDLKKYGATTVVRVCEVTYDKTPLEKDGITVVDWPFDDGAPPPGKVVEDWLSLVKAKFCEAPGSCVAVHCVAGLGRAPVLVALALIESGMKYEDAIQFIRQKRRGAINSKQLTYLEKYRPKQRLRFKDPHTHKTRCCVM
The experiment in a line: In vitro phosphatase assay (DiFMUP hydrolysis), PRL-3. Also: test concentration or dose not given here.

The target in a further assay is T3, recombinant PRL-2 (Homo sapiens, UniProt Q12974).
T3 construct: 6xHis (N, cleaved yes); made in house; host or cells: E. coli One Shot BL21 Star
T3 sequence (Q12974 1-167): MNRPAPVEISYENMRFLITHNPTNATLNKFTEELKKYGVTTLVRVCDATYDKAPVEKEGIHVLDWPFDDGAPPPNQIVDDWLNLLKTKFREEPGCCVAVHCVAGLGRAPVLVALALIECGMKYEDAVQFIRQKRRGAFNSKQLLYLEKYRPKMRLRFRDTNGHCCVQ
The experiment in a line: In vitro phosphatase assay (DiFMUP hydrolysis), PRL-2.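 Also: PRL-2 activity read as DiFMUP hydrolysis after 20 min at room temperature with drug, enzyme first pre-reduced at 4 °C for 20 min.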

Where [1] appears, read: FDA-approved drug screen, activity compared to DMSO.

Consider `CC[C@H]1OC(=O)C[C@@H](O)[C@H](C)[C@@H](O[C@@H]2O[C@H](C)[C@@H](O)[C@H](N(C)C)[C@H]2O)[C@@H](CCN2C[C@H](C)C[C@H](C)C2)C[C@@H](C)C(=O)/C=C/C(C)=C/[C@@H]1CO[C@@H]1O[C@H](C)[C@@H](O)[C@@H](OC)[C@H]1OC` [Tilmicosin], for which, at recombinant PRL-1 (setting [1]), the “% Phosphatase Activity (compared to DMSO) PRL-1” value is listed as 89%. In addition, the “% Phosphatase Activity (compared to DMSO) PRL-3” value on recombinant PRL-3 (setting [1]) is 71%. On recombinant PRL-2 (setting [1]), the “% Phosphatase Activity (compared to DMSO) PRL-2” value was 88%.
Taken in the same sequence, the figures for `CC(C)(C)NC[C@H](O)COc1nsnc1N1CCOCC1` [Timolol Maleate] were 107%, 87% and 111%.
Taken in the same sequence, the figures for `CCS(=O)(=O)CCn1c([N+](=O)[O-])cnc1C` [Tinidazole] were 107%, 84% and 113%.
For `Clc1ccc(C(Cn2ccnc2)OCc2ccsc2Cl)c(Cl)c1` (stereo not drawn) [Tioconazole], at recombinant PRL-1, the “% Phosphatase Activity (compared to DMSO) PRL-1” value worked out at 83%. On recombinant PRL-3, the “% Phosphatase Activity (compared to DMSO) PRL-3” value came to 84%. Besides, the “% Phosphatase Activity (compared to DMSO) PRL-2” value at recombinant PRL-2 is given as 92%.
Take `CC(S)C(=O)NCC(=O)O` (stereo not drawn) [Tiopronin]: the “% Phosphatase Activity (compared to DMSO) PRL-1” value at recombinant PRL-1 (setting [1]) amounted to 90%. The “% Phosphatase Activity (compared to DMSO) PRL-3” value at recombinant PRL-3 (setting [1]) worked out at 98%. Also, the “% Phosphatase Activity (compared to DMSO) PRL-2” value at recombinant PRL-2 (setting [1]) was determined as 119%.
`C[N+]1(C)[C@@H]2C[C@@H](OC(=O)C(O)(c3cccs3)c3cccs3)C[C@H]1[C@@H]1O[C@@H]12` [Tiotropium Bromide hydrate]: the “% Phosphatase Activity (compared to DMSO) PRL-1” value at recombinant PRL-1 (setting [1]) worked out at 95%. Besides, the “% Phosphatase Activity (compared to DMSO) PRL-3” value at recombinant PRL-3 (setting [1]) stood at 84%. Moreover, on recombinant PRL-2 (setting [1]), the “% Phosphatase Activity (compared to DMSO) PRL-2” value was 115%.
As for `O=c1oc2cc(O)ccc2s1` [Tioxolone], the “% Phosphatase Activity (compared to DMSO) PRL-1” value on recombinant PRL-1 (setting [1]) worked out at 102%. For the same compound, at recombinant PRL-3 (setting [1]), the “% Phosphatase Activity (compared to DMSO) PRL-3” value is recorded as 92%. Further, on recombinant PRL-2 (setting [1]), the “% Phosphatase Activity (compared to DMSO) PRL-2” value is on record as 124%.
Taken in the same sequence, the figures for `O=C1NC(=O)[C@@H](c2cn3c4c(cccc24)CCC3)[C@@H]1c1c[nH]c2ccccc12` [Tivantinib (ARQ 197)] were 95%, 90% and 83%.
Taken in the same sequence, the figures for `COc1cc2nccc(Oc3ccc(NC(=O)Nc4cc(C)on4)c(Cl)c3)c2cc1OC` [Tivozanib (AV-951)] were 107%, 75% and 101%.
As to `Clc1ccc2nsnc2c1NC1=NCCN1` [Tizanidine HCl], the “% Phosphatase Activity (compared to DMSO) PRL-1” value at recombinant PRL-1 is reported as 93%. The “% Phosphatase Activity (compared to DMSO) PRL-3” value on recombinant PRL-3 is given as 76%. Further, the “% Phosphatase Activity (compared to DMSO) PRL-2” value at recombinant PRL-2 was 92%.
For `NC[C@H]1O[C@H](O[C@H]2[C@H](O)[C@@H](O[C@H]3O[C@H](CO)[C@@H](O)[C@H](N)[C@H]3O)[C@H](N)C[C@@H]2N)[C@H](N)C[C@@H]1O` [Tobramycin], at recombinant PRL-1 (setting [1]), the “% Phosphatase Activity (compared to DMSO) PRL-1” value is given as 99%. On recombinant PRL-3 (setting [1]), the “% Phosphatase Activity (compared to DMSO) PRL-3” value was determined as 91%. Also, the “% Phosphatase Activity (compared to DMSO) PRL-2” value at recombinant PRL-2 (setting [1]) was found to be 97%.
Taken in the same sequence, the figures for `C[C@@H]1CCN(C(=O)CC#N)C[C@@H]1N(C)c1ncnc2[nH]ccc12.O=C(O)CC(O)(CC(=O)O)C(=O)O` [Tofacitinib (CP-690550) Citrate] were 109%, 104% and 91%.
`C[C@@H]1CCN(C(=O)CC#N)C[C@@H]1N(C)c1ncnc2[nH]ccc12` [Tofacitinib (CP-690550,Tasocitinib)]: at recombinant PRL-1 (setting [1]), the “% Phosphatase Activity (compared to DMSO) PRL-1” value is 117%. Besides, the “% Phosphatase Activity (compared to DMSO) PRL-3” value at recombinant PRL-3 (setting [1]) was 96%. Moreover, the “% Phosphatase Activity (compared to DMSO) PRL-2” value at recombinant PRL-2 (setting [1]) is given as 114%.
Taken in the same sequence, the figures for `Cc1ccc(S(=O)(=O)NC(=O)NN2CCCCCC2)cc1` [Tolazamide] were 81%, 82% and 84%.
Taken in the same sequence, the figures for `c1ccc(CC2=NCCN2)cc1` [Tolazoline HCl] were 100%, 91% and 110%.
Taken in the same sequence, the figures for `CCCCNC(=O)NS(=O)(=O)c1ccc(C)cc1` [Tolbutamide] were 104%, 91% and 119%.
For the compound `Cc1ccc(C(=O)c2cc(O)c(O)c([N+](=O)[O-])c2)cc1` [Tolcapone], the “% Phosphatase Activity (compared to DMSO) PRL-1” value at recombinant PRL-1 (setting [1]) came out at 78%. Also, the “% Phosphatase Activity (compared to DMSO) PRL-3” value on recombinant PRL-3 (setting [1]) is on record as 71%. Moreover, the “% Phosphatase Activity (compared to DMSO) PRL-2” value on recombinant PRL-2 (setting [1]) came out at 89%.
